Data from PMC8748766, “The catalytic activity of TCPTP is auto-regulated by its intrinsically disordered tail and activated by Integrin alpha-1” (Nature Communications, 2022).

Assays:
[1] = molecular target: T1, TCPTP (Homo sapiens, UniProt P17706); experiment: Kinetics of TCPTP with saturating ITGA1 peptide, pEGFR peptide-1 substrate; assay type: biochemical; details: TCPTP saturated with ITGA1 peptide (ITGA1_TR 1 μM; ITGA1_FCT 25 μM), mean ± SE, n = 9
T1 construct: fragments of TCPTP (residues: 1–387); His6 (N, cleaved yes); made in house; host or cells: E. coli BL21 (DE3) RIL
T1 sequence (P17706 1-387 isoform P17706-2): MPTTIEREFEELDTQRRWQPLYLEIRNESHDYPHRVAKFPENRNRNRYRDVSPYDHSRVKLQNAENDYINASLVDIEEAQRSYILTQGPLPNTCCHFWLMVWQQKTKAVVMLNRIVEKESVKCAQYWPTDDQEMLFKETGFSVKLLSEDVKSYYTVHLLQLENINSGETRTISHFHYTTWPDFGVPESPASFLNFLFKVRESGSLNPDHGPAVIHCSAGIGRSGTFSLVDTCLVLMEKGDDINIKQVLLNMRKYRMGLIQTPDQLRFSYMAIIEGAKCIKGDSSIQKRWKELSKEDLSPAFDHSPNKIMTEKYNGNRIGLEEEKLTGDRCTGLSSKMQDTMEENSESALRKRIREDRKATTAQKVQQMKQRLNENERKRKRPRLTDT
Source text: (§1) Polymerase chain reaction (PCR) fragments of TCPTP (residues: 1–387) TCPTPCAT (catalytic domain, residues: 1–288, 1–302 or 1–314), TCPTPTail (C-terminal tail, residues: 289–387 or 303–387) were amplified from full-length human TCPTP (TC45 isoform). TCPTP, TCPTPCAT (residues: 1–288, 1–314), and TCPTPTail (residues: 289–387) fragments were cloned into pMCSG7 including a N-terminal His6-tag using ligation-independent cloning. For all NMR experiments, the PCR fragments of TCPTP, TCPTPCAT (residues: 1–302) and TCPTPTail (residue: 303–387) were sub-cloned into pRP1B as previously described.
(§2) The rate of dephosphorylation of TCPTP and TCPTPCAT (residue 1–314) against 2 phosphotyrosine peptides derived from EGFR was monitored either with or without ITGA1 peptide (ITGA1_FCT & ITGA1_TR) in assay buffer (25 mM Hepes pH 7.4, 50 mM NaCl and 1 mM DTT). Lyophilized powder of all synthetic peptides was dissolved in assay buffer without DTT (phosphopeptides, 5 mM; ITGA1 peptides, 2 mM). For the kinetic analysis, the concentration of the enzyme was fixed at 1 nM while the substrate (phosphopeptides) concentration was varied from 2.5 μM to 160 μM in a total reaction volume of 200 μl. Effect of ITGA1 peptide on TCPTP & TCPTPCAT kinetics were assessed in saturated condition by adding an excess amount of ITGA1 peptide to the reaction mixture (ITGA1_TR = 1 μM; ITGA1_FCT = 25 μM). The reaction was incubated at 30 °C for 30 min and stopped by the addition of 30 μl phosphate reagent (phosphate colorimetric assay kit; Bio Vision) following the manufacturer’s instructions. Data were normalized and fitted using a nonlinear curve, and kinetics parameters (KM and kcat) were calculated from the Michaelis-Menten equation using Graph Pad Prism 9.0. All data points in the enzyme kinetics experiment were measured in triplicate, and the experiments were repeated three times.

[2] = molecular target: T1, TCPTP; experiment: Kinetics of TCPTP with saturating ITGA1 peptide, pEGFR peptide-2 substrate; assay type: biochemical; details: TCPTP saturated with ITGA1 peptide (ITGA1_TR 1 μM; ITGA1_FCT 25 μM), mean ± SE, n = 9
Source text: as §1, §2

[3] = molecular target: T1, TCPTP; experiment: EC50 assay: TCPTP activation by ITGA1 peptides (pEGFR peptide-1 dephosphorylation); assay type: biochemical; details: 1 nM TCPTP, 50 μM pEGFR peptide-1, n = 3
Source text: as §1
To determine the EC50, synthesized ITGA1 peptides (ITGA1_FCT, ITGA1_TCT and ITGA1_TR) were mixed with TCPTP, and phosphatase activity was measured using the phospho-EGFR peptides (pEGFR peptide-1) as substrate. Lyophilized powder of all peptides was dissolved in 25 mM Hepes pH 7.4, 50 mM NaCl. For the assay, the TCPTP concentration was fixed at 1 nM and substrate phospho-peptide at 50 μM. […] The absorbance of the reaction mixture was measured at 650 nm, which was converted to the amount of phosphate produced in reaction based on the standard curve generated from the known phosphate concentration. Data obtained from the reaction was fitted using nonlinear regression mode and EC50 values were calculated based on the equation function “Log(agonist) vs. response-variable slope” using Graph Pad Prism 9.0.

[4] = molecular target: T2, TCPTPCAT (Homo sapiens, UniProt P17706); experiment: NMR titration (2D HSQC/TROSY) binding to TCPTPCAT; details: 2D [1H,15N] TROSY, unlabeled ligand added
T2 construct: TCPTP and TCPTPCAT (residue 1–314) against 2 phosphotyrosine peptides derived from EGFR; His6 (N, cleaved yes); made in house; host or cells: E. coli BL21 (DE3) RIL
T2 sequence (P17706 1-314 isoform P17706-2): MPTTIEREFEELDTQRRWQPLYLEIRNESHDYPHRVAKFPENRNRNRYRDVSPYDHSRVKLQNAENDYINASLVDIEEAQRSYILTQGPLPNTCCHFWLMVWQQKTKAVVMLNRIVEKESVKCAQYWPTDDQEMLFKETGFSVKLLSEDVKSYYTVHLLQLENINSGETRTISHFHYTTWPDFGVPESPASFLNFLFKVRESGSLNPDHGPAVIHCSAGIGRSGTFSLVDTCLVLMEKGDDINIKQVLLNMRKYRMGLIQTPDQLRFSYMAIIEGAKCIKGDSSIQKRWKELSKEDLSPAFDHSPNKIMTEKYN
Source text: as §1
NMR data were collected on either Bruker NEO 600 MHz or 800 MHz spectrometers equipped with TCI HCN z-gradient cryoprobes at 298 K or 283 K. NMR measurements of TCPTP’s variant construct were recorded using (^1H,^15N)-, (^2H,^15N)-, (^1H,^15N,^13C), or (^2H,^15N,^13C)-labeled protein at a final concentration of 0.6 mM for backbone assignment or 0.1 mM for titration in NMR buffer and 90% H2O/10% D2O. The sequence-specific backbone assignments of TCPTP (residues 1–387), TCPTPCAT (residues 1–302), TCPTPTail (residues 303–387) and other variants were achieved using 3D triple resonance experiments including […], 3D HNCA, 3D HN(CO)CA, 3D HN(CO)CACB, and 3D HNCACB either as HSQC or TROSY variations. All NMR data were processed using TopSpin 4.0.5[44] and analyzed using either CARA (http://www.cara.nmr.ch) and/or CcpNMR[45].

[5] = molecular target: T1, TCPTP; experiment: Effect of ITGA1, ITGA10 & ITGA11 peptide on TCPTP activity, pEGFR peptide-2; assay type: biochemical; details: pEGFR peptide-2 substrate, n = 9
Source text: as §1
Relative activity of TCPTP and its variant mutant construct were measured by adding 1 nM of enzymes against the fixed concentration of substrate (100 μM of phosphopeptides), the reaction was incubated at 30 °C for 30 min in assay buffer before getting stopped as described above. […]
Supplementary Figure 8: TCPTP is distinctively activated by Integrin cytoplasmic tail with positive charge residue clusters. a Sequence alignment of the cytoplasmic tail for the human Integrin family. Positive charge residues are highlighted in blue, while negative charge residues are red; a black box highlights large clusters of positive charge residue. b Effect of ITGA1, ITGA10 & ITGA11 on the catalytic activity of TCPTP, measured against pEGFR peptide-2, derived from the EGFR’s kinase domain activation loop. […]

[6] = tested on: pEGFR peptide-1, derived from the cytoplasmic tail of EGFR; experiment: Phosphatase kinetic analysis (Michaelis-Menten) of TCPTP constructs, pEGFR peptide-1 substrate; assay type: biochemical
Method: as §2

[7] = tested on: pEGFR peptide-2, derived from the EGFR's kinase domain activation loop; experiment: Phosphatase kinetic analysis (Michaelis-Menten) of TCPTP constructs, pEGFR peptide-2 substrate; assay type: biochemical
Method: as §2
Supplementary Table 2: Enzymatic activity assay (Michaelis-Menten analysis); substrate pEGFR peptide-2, derived from the EGFR’s kinase domain activation loop. Calculated kinetic parameter are presented as the mean of nine independent reactions (n=9; mean ± SE). Source data are provided as a Source Data file. kcat (s-1) Km (µM) kcat/Km (µM -1s-1)

[8] = DiFMUP assay of TCPTP, TCPTPCAT, PTP1B and PTP1BCAT; assay type: biochemical; details: 10 μM DiFMUP, 2.5 nM protein, pH 7.4, 25 min, fluorescence 455 nm; n = 9
Method: Activity of TCPTP, TCPTPCAT (residue 1–314) either with or without ITGA1 peptides (ITGA1_TR; 1:50 molar ratio, ITGA1_FCT; 1:1000 molar ratio), PTP1B (residue 1–400) and PTP1BCAT (residue 1–321) were assessed in assay buffer (25 mM Hepes pH 7.4, 50 mM NaCl, and 1 mM DTT). The assay was performed in black polystyrene flat bottom 96-well plate. The concentration of DiFMUP was fixed at 10 μM and protein concentration at 2.5 nM in total reaction volume of 100 μl. The emitted fluorescent signal at 455 nm was continuously recorded for 25 min using a Tecan Infinite M1000 pro microplate reader (Tecan i-control, 2.0.10.0).

[9] = pEGFR peptide-2 2.5-160 μM, 1 nM enzyme, pH 7.4, 30 °C 30 min, mean ± SE, n = 9

**Q.** For “KIGFFKRPLKKKMEK [ITGA1_FCT, ITGA1 full cytoplasmic tail: …]”, which kcat ([1]; pEGFR peptide-1, 1 nM enzyme, pH 7.4, 30 °C 30 min) is on record?
**A.** 26.6 ± 0.8 s⁻¹

**Q.** What about the Km ([1]; pEGFR peptide-1, pH 7.4, 30 °C) of the same molecule?
**A.** 20.2 ± 1.9 µM

**Q.** What about the kcat/Km ([1]; pEGFR peptide-1) of the same molecule?
**A.** 1.3e+06 ± 100000 M⁻¹ s⁻¹

**Q.** What about the kcat ([2]; pEGFR peptide-2, pH 7.4, 30 °C 30 min) of the same molecule?
**A.** 30.2 ± 1.2 s⁻¹

**Q.** And the Km ([2]; pEGFR peptide-2)?
**A.** 32.8 ± 3.7 µM

**Q.** And the kcat/Km ([2]; pEGFR peptide-2)?
**A.** 0.9 ± 0.1 µM -1s-1

**Q.** What about the “activation relative to ITGA1_TCT” value [3] of the same molecule?
**A.** functions better than ITGA1_TCT

**Q.** And the “NMR titration: CSPs in (2H,15N)-labeled TCPTPCAT” value [4]?
**A.** significant CSPs in the same residues

**Q.** With KLGFFAHKKIPEEEKREEKLEQ [ITGA10] as the molecule, how does the TCPTP activation [5] read?
**A.** fails to do so

**Q.** Which TCPTP activation [5] does the source give for KLGFFRSARRRREPGLDPTPKVLE [ITGA11] here?
**A.** efficiently activates TCPTP

B1: TCPTP: T-Cell Protein Tyrosine Phosphatase, TC45 isoform, full-length residues 1–387 (protein)
chain: MPTTIEREFEELDTQRRWQPLYLEIRNESHDYPHRVAKFPENRNRNRYRDVSPYDHSRVKLQNAENDYINASLVDIEEAQRSYILTQGPLPNTCCHFWLMVWQQKTKAVVMLNRIVEKESVKCAQYWPTDDQEMLFKETGFSVKLLSEDVKSYYTVHLLQLENINSGETRTISHFHYTTWPDFGVPESPASFLNFLFKVRESGSLNPDHGPAVIHCSAGIGRSGTFSLVDTCLVLMEKGDDINIKQVLLNMRKYRMGLIQTPDQLRFSYMAIIEGAKCIKGDSSIQKRWKELSKEDLSPAFDHSPNKIMTEKYNGNRIGLEEEKLTGDRCTGLSSKMQDTMEENSESALRKRIREDRKATTAQKVQQMKQRLNENERKRKRPRLTDT
modifications: left off: His6, N-terminal, cleaved
**Q.** Which results are given for B1?
**A.** kcat ([6]; pEGFR peptide-1 2.5-160 μM, 1 nM enzyme, 25 mM Hepes pH 7.4, 50 mM NaCl, 1 mM DTT, 30 °C 30 min, mean ± SE, n = 9 (TCPTPCAT, TCPTP) or 12 (TCPTPC-term, TCPTPL1)): 12.2 ± 0.2 s⁻¹; Km ([6]; pEGFR peptide-1 2.5-160 μM, 1 nM enzyme, pH 7.4, 30 °C 30 min, mean ± SE, n = 9 (TCPTPCAT, TCPTP) or 12 (TCPTPC-term, TCPTPL1)): 12.4 ± 0.6 µM; kcat/Km ([6]; pEGFR peptide-1, pH 7.4, 30 °C, mean ± SE, n = 9 (TCPTPCAT, TCPTP) or 12 (TCPTPC-term, TCPTPL1)): 1e+06 ± 100000 M⁻¹ s⁻¹; rate of dephosphorylation, fold slower than TCPTPCAT ([6]; pEGFR peptide-1, vs TCPTPCAT): ~ 3 fold; Km [7, 9]: 21.2 ± 2.6 µM; kcat [7, 9]: 13.8 ± 0.5 s⁻¹; kcat/Km ([7]; pEGFR peptide-2, mean ± SE, n = 9): 0.6 ± 0.1 µM -1s-1; rate of dephosphorylation, fold slower than TCPTPCAT ([7]; pEGFR peptide-2, vs TCPTPCAT): ~ 3 fold; DiFMUP dephosphorylation, times slower than with TCPTPCAT [8]: ~ 3 times
